# Data as given in PubChem BioAssay AID248 (DTP/NCI, 2004).
# Values joined by “and” are separate entries in the source; they are usually repeats but may differ in a detail not shown here. Equal entries are not always repeated. Toxic doses and inconclusive results are not listed. Square brackets hold non-standard residues; d marks the D form. Peptide text beside a SMILES is read from it. * marks the point of attachment. ξ: configuration not given here. Cbz = O=C(OCc1ccccc1)*; ξD = NC(CC(=O)O)C(=O)O
# Test system: L1210 leukemia ip in BDF1 mice, survival T/C
# Experiment: NCI In Vivo Anticancer Drug Screen. Data for tumor model L1210 Leukemia (intraperitoneal) in B6D2F1 (BDF1) mice
# Settings: higher = longer survival
# In short: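 Survival endpoint. Drug-treated group vs vehicle group, expressed as T divided by C. Tumor passaged by transplantation.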
# [1] = endpoint: mean survival time, dose: 100.0 mg/kg/injection, schedule: Q01DX009 (ip), vehicle: saline with Tween-80
# [2] = endpoint: mean survival time, dose: 100.0 mg/kg/injection, schedule: Q04DX002 (ip), vehicle: saline with Tween-80
# [3] = endpoint: mean survival time, dose: 200.0 mg/kg/injection, schedule: Q01DX009 (ip), vehicle: saline with Tween-80
# [4] = endpoint: mean survival time, dose: 200.0 mg/kg/injection, schedule: Q04DX002 (ip), vehicle: saline with Tween-80
# [5] = endpoint: mean survival time, dose: 400.0 mg/kg/injection, schedule: Q01DX009 (ip), vehicle: saline with Tween-80
# [6] = endpoint: mean survival time, dose: 100.0 mg/kg/injection, schedule: Q04DX003 (ip), vehicle: Klucel (hydroxypropylcellulose) (HPC)
# [7] = endpoint: mean survival time, dose: 200.0 mg/kg/injection, schedule: Q04DX003 (ip), vehicle: Klucel (hydroxypropylcellulose) (HPC)
# [8] = endpoint: mean survival time, dose: 400.0 mg/kg/injection, schedule: Q04DX003 (ip), vehicle: Klucel (hydroxypropylcellulose) (HPC)
# [9] = endpoint: mean survival time, dose: 100.0 mg/kg/injection, schedule: Q04DX003 (ip), vehicle: saline with Tween-80
# [10] = endpoint: mean survival time, dose: 200.0 mg/kg/injection, schedule: Q04DX003 (ip), vehicle: saline with Tween-80
# [11] = endpoint: mean survival time, dose: 400.0 mg/kg/injection, schedule: Q04DX003 (ip), vehicle: saline with Tween-80
# [12] = endpoint: mean survival time, dose: 100.0 mg/kg/injection, schedule: Q01DX009 (ip), vehicle: Klucel (hydroxypropylcellulose) (HPC)
# [13] = endpoint: mean survival time, dose: 100.0 mg/kg/injection, schedule: Q04DX002 (ip), vehicle: Klucel (hydroxypropylcellulose) (HPC)
# [14] = endpoint: mean survival time, dose: 200.0 mg/kg/injection, schedule: Q01DX009 (ip), vehicle: Klucel (hydroxypropylcellulose) (HPC)
# [15] = endpoint: mean survival time, dose: 200.0 mg/kg/injection, schedule: Q04DX002 (ip), vehicle: Klucel (hydroxypropylcellulose) (HPC)
# [16] = endpoint: mean survival time, dose: 400.0 mg/kg/injection, schedule: Q01DX009 (ip), vehicle: Klucel (hydroxypropylcellulose) (HPC)
# [17] = endpoint: mean survival time, dose: 400.0 mg/kg/injection, schedule: Q04DX002 (ip), vehicle: Klucel (hydroxypropylcellulose) (HPC)
structure (smiles),measurement,setting,value
COc1ccc(Cl)c(NC(=O)Nc2cc(Cl)ccc2C)c1,T/C,[1],94 % of control and 95 % of control
same,T/C,[2],98 % of control and 91 % of control
same,T/C,[3],90 % of control
same,T/C,[4],95 % of control and 91 % of control
same,T/C,[5],93 % of control
same,T/C,"endpoint: mean survival time, dose: 400.0 mg/kg/injection, schedule: Q04DX002 (ip), vehicle: saline with Tween-80",87 % of control and 90 % of control
CN(C)C(=O)OCC[N+](C)(C)CCCCCC[N+](C)(C)CCOC(=O)N(C)C,T/C,"endpoint: mean survival time, dose: 12.0 mg/kg/injection, schedule: Q04DX003 (ip), vehicle: saline",105 % of control
same,T/C,"endpoint: mean survival time, dose: 25.0 mg/kg/injection, schedule: Q04DX003 (ip), vehicle: saline",96 % of control
same,T/C,"endpoint: mean survival time, dose: 50.0 mg/kg/injection, schedule: Q04DX003 (ip), vehicle: saline",97 % of control
same,T/C,"endpoint: mean survival time, dose: 75.0 mg/kg/injection, schedule: Q04DX003 (ip), vehicle: saline",92 % of control
COC(=O)c1c(C(N)=O)n[nH]c1C1OC(COCc2ccccc2)C(OCc2ccccc2)C1OCc1ccccc1 (centres undefined),T/C,"endpoint: mean survival time, dose: 100.0 mg/kg/injection, schedule: Q01DX005 (ip), vehicle: saline with Tween-80",102 % of control
same,T/C,"endpoint: mean survival time, dose: 200.0 mg/kg/injection, schedule: Q01DX005 (ip), vehicle: saline with Tween-80",100 % of control
Nc1ncnc(N)c1NC(=O)c1ccc(C(=O)c2ccccc2)cc1,T/C,[6],100 % of control
same,T/C,[7],94 % of control
same,T/C,[8],94 % of control
O=C1CCc2c1cc(O)c1ccc(S(=O)(=O)O)cc21,T/C,"endpoint: mean survival time, dose: 5.0 mg/kg/injection, schedule: Q01DX001 (ip), vehicle: saline",104 % of control
same,T/C,"endpoint: mean survival time, dose: 10.0 mg/kg/injection, schedule: Q01DX001 (ip), vehicle: saline",106 % of control
same,T/C,"endpoint: mean survival time, dose: 20.0 mg/kg/injection, schedule: Q01DX001 (ip), vehicle: saline",104 % of control
same,T/C,"endpoint: mean survival time, dose: 40.0 mg/kg/injection, schedule: Q01DX001 (ip), vehicle: saline",102 % of control
CN(C)c1ccc(C=NCCN=Cc2ccc(N(C)C)cc2)cc1,T/C,[9],98 % of control
same,T/C,[10],106 % of control
same,T/C,[11],95 % of control
c1ccc([Si](c2ccccc2)(c2ccccc2)c2cccs2)cc1,T/C,[9],93 % of control
same,T/C,[10],90 % of control
same,T/C,[11],88 % of control
O=C(Nc1ccccc1Cl)OC/C=C/c1ccccc1,T/C,[12],103 % of control
same,T/C,[13],88 % of control
same,T/C,[14],96 % of control
same,T/C,[15],88 % of control
same,T/C,[16],108 % of control
same,T/C,[17],100 % of control
O=C1C(Br)=C(Br)C(=O)C1(Br)Br,T/C,[9],87 % of control
same,T/C,[10],96 % of control
same,T/C,[11],94 % of control
COc1ccc(OC)c2[nH]c(-c3ccccc3)cc12,T/C,[13],96 % of control
same,T/C,[15],105 % of control
same,T/C,[17],93 % of control
CN1CCC(O)(c2ccc(F)cc2)C(C(=O)c2ccc(F)cc2)C1 (centres undefined),T/C,"endpoint: mean survival time, dose: 50.0 mg/kg/injection, schedule: Q01DX001 (ip), vehicle: carboxymethylcellulose (CMC)",100 % of control
same,T/C,"endpoint: mean survival time, dose: 100.0 mg/kg/injection, schedule: Q01DX001 (ip), vehicle: carboxymethylcellulose (CMC)",100 % of control
same,T/C,"endpoint: mean survival time, dose: 200.0 mg/kg/injection, schedule: Q01DX001 (ip), vehicle: carboxymethylcellulose (CMC)",94 % of control
same,T/C,"endpoint: mean survival time, dose: 400.0 mg/kg/injection, schedule: Q01DX001 (ip), vehicle: carboxymethylcellulose (CMC)",94 % of control
CC1CC(C)(C)C(C[NH-])C1[NH-].[Cl][Pt+2][Cl] (centres undefined),T/C,"endpoint: median survival time, dose: 7.5 mg/kg/injection, schedule: Q01DX009 (ip), vehicle: saline",189 % of control
same,T/C,"endpoint: median survival time, dose: 15.0 mg/kg/injection, schedule: Q01DX001 (ip), vehicle: saline",173 % of control
same,T/C,"endpoint: median survival time, dose: 15.0 mg/kg/injection, schedule: Q01DX009 (ip), vehicle: saline",205 % of control
same,T/C,"endpoint: median survival time, dose: 30.0 mg/kg/injection, schedule: Q01DX001 (ip), vehicle: saline",189 % of control
same,T/C,"endpoint: median survival time, dose: 30.0 mg/kg/injection, schedule: Q01DX009 (ip), vehicle: saline",105 % of control
same,T/C,"endpoint: median survival time, dose: 60.0 mg/kg/injection, schedule: Q01DX001 (ip), vehicle: saline",154 % of control
same,T/C,"endpoint: median survival time, dose: 60.0 mg/kg/injection, schedule: Q01DX009 (ip), vehicle: saline",87 % of control
same,T/C,"endpoint: median survival time, dose: 120.0 mg/kg/injection, schedule: Q01DX001 (ip), vehicle: saline",209 % of control
CCC1(CC)C=CC(Br)CC1(CC)CC (centres undefined),T/C,[9],103 % of control
same,T/C,[10],101 % of control
same,T/C,[11],101 % of control
NC(N)=N/C(N)=N\c1nn[nH]n1,T/C,"endpoint: mean survival time, dose: 100.0 mg/kg/injection, schedule: Q01DX001 (ip), vehicle: saline sonified",96 % of control
same,T/C,"endpoint: mean survival time, dose: 100.0 mg/kg/injection, schedule: Q01DX009 (ip), vehicle: saline sonified",91 % of control
same,T/C,"endpoint: mean survival time, dose: 200.0 mg/kg/injection, schedule: Q01DX001 (ip), vehicle: saline sonified",100 % of control
same,T/C,"endpoint: mean survival time, dose: 400.0 mg/kg/injection, schedule: Q01DX001 (ip), vehicle: saline sonified",93 % of control
same,T/C,"endpoint: mean survival time, dose: 400.0 mg/kg/injection, schedule: Q01DX009 (ip), vehicle: saline sonified",92 % of control
O=C(O)CC(NC(=O)CNC(=O)OCc1ccccc1)C(=O)O (stereo not drawn) (Cbz-Gly-[ξD]-OH),T/C,"endpoint: mean survival time, dose: 50.0 mg/kg/injection, schedule: Q01DX009 (ip), vehicle: Klucel (hydroxypropylcellulose) (HPC)",93 % of control
same,T/C,"endpoint: mean survival time, dose: 50.0 mg/kg/injection, schedule: Q04DX003 (ip), vehicle: Klucel (hydroxypropylcellulose) (HPC)",94 % of control
same,T/C,[12],93 % of control
same,T/C,[6],98 % of control
same,T/C,[14],95 % of control
same,T/C,[7],94 % of control
CCOc1ccc(Cl)cc1,T/C,"endpoint: mean survival time, dose: 75.0 mg/kg/injection, schedule: Q01DX009 (ip), vehicle: Klucel (hydroxypropylcellulose) (HPC)",117 % of control
same,T/C,[1],108 % of control
same,T/C,[13],100 % of control
same,T/C,"endpoint: mean survival time, dose: 150.0 mg/kg/injection, schedule: Q01DX009 (ip), vehicle: Klucel (hydroxypropylcellulose) (HPC)",93 % of control
same,T/C,[3],106 % of control
same,T/C,[15],103 % of control
same,T/C,"endpoint: mean survival time, dose: 300.0 mg/kg/injection, schedule: Q01DX009 (ip), vehicle: Klucel (hydroxypropylcellulose) (HPC)",96 % of control
same,T/C,[17],92 % of control
Nc1cc(Cl)c2ncn(C3OC(CO)C(O)C3O)c2n1 (centres undefined),T/C,"endpoint: mean survival time, dose: 100.0 mg/kg/injection, schedule: Q01DX001 (ip), vehicle: saline",98 % of control
same,T/C,"endpoint: mean survival time, dose: 100.0 mg/kg/injection, schedule: Q01DX005 (ip), vehicle: saline",110 % of control
same,T/C,"endpoint: mean survival time, dose: 200.0 mg/kg/injection, schedule: Q01DX001 (ip), vehicle: saline",101 % of control
same,T/C,"endpoint: mean survival time, dose: 200.0 mg/kg/injection, schedule: Q01DX005 (ip), vehicle: saline",115 % of control
same,T/C,"endpoint: mean survival time, dose: 400.0 mg/kg/injection, schedule: Q01DX001 (ip), vehicle: saline",114 % of control
O=[N+]([O-])c1ccc(N/N=C/c2cccc(CO)c2)c([N+](=O)[O-])c1,T/C,[1],98 % of control
same,T/C,[3],95 % of control
same,T/C,[5],100 % of control
CC(=O)ON1C(=O)c2cccc3cccc(c23)C1=O,T/C,[2],102 % of control
same,T/C,[4],109 % of control
O=C1C=C(Nc2ccc(Cl)cc2)C(=O)c2ccccc21,T/C,"endpoint: mean survival time, dose: 75.0 mg/kg/injection, schedule: Q01DX001 (ip), vehicle: carboxymethylcellulose (CMC)",93 % of control
same,T/C,"endpoint: mean survival time, dose: 300.0 mg/kg/injection, schedule: Q01DX001 (ip), vehicle: carboxymethylcellulose (CMC)",87 % of control
O=C(/C=C/c1ccccc1)Nc1cc(Cl)ccc1Cl,T/C,[12],110 % of control
same,T/C,[6],97 % of control
same,T/C,[14],114 % of control
same,T/C,[7],89 % of control
same,T/C,[16],96 % of control
same,T/C,[8],94 % of control
